Laboratory results published in US20260007716A1, “DESLORELIN FOR ATTENUATION OF ANIMAL URINE ODOR” (priority 2022, published 2026).

How the values were obtained:
male cats [1] = test: Cat field studies 1 and 2: suppression of fertility, re-implantation and reversibility (Example 4); assay type: in vivo
Method: This example provides the data collected from 2 combined studies (Double-masked Placebo-Controlled randomized) that have been conducted sequentially according to the following schedule: • Study 1: The study 1 has been conducted on a group of 205 male cats divided into two groups, one Control Group that received 1 mL of saline solution (n=51-subcutaneous administration) and one Treated Group (n=154) that received an implant of Suprelorin® 4.7 mg (subcutaneous implant-deslorelin acetate). • Study 2: At the end of a first period of 12 months, the Suprelorin® implant was removed in all the male cats belonging to the Treated Group. 12 male cats of the Treated Group issued from study 1 were then administered saline solution (1 mL subcutaneously) (Saline Group) and 22 cats of the Treated Group issued from Study 1 were re-implanted with a new Suprelorin® 4.7 mg implant for a second period of time of 12 months (Treated twice Group). The efficacy and safety of the re-implantation was followed-up for these supplementary 12 months, i.e. for a total of 24 months.
The observation schedule was as follows: • Study 1: V1: Day −14 to −7; V2: Day 0; V3: 1.5 months±3 days; V4: 3 months±5 days, V5: 6 months±5 days, V6: 9 months±5 days; V7: 12 months±5 days; • Study 2: V8: 12 months±3 days; V9: 13.5 months±3 days; V10: 15 months±5 days; V11: 18 months±5 days; V12: 21 months±5 days; V13: 24 months±5 days.
Regarding the enrolment criteria, in both studies the criteria were as the following: • Domestic Cats • Age >3 MONTHS old or >15 MONTHS in Study 2 • Intact Indoor males • Client-owned (including shelter cats/rehomed by foster families)
With the additional criteria for study 2 of being a success in study 1.
In these studies the following primary endpoints were measured: • For Study 1: the suppression of fertility (Testosterone≤0.10 ng/ml*from V4 until V7*-3 to 12 months) • Study 2: the suppression of fertility (Testosterone≤0.10 ng/ml*from V8 until V13 (12 to 24 months) and the time to reversion effect.
In addition to the safety parameters (Haematology and blood biochemistry, Urinalysis, Local reactions at the implantation site, Change in Body weight, Appetite, Abnormal testicular evaluation, Adverse events), the following secondary endpoints have been reported as well: • Sexual behaviour sum score • Aggression • Vocalization • Urine marking • Urine Smell/odour • Penile Spines • Testicular volume

dogs = details: cited from earlier work
[2] = system: molecules responsible of urine odor; test: LC-MS/MS metabolomic analysis of urine of male cats after deslorelin implant (Examples 2 and 3); assay type: in vivo, cat
Method: A first study A was performed in 2 groups of a total number of 7 male healthy cats old from 12 to 13 months and weighting between 4 and 6 kg in: Control group: n=3, intact males, administered sodium chloride (saline) on day 0 (D0), Chemically treated group: n=4 one implant of Suprelorin® 4.7 mg on day 0 (D0). The study A was conducted for a period of 63 days after the implantation of Suprelorin® 4.7 mg. From […]-7, a clinical examination of the cats was performed (body weight, temperature) and samples of urine and feces were collected. At D0, the cats of the treated group were implanted subcutaneously with Suprelorin® 4.7 mg (Virbac, France). From D7 to […], a weekly clinical examination of the cats was performed (body weight, temperature) and samples urine and feces were collected. […] Thanks to this unusual technic, the metabolomics present in samples have been assessed. […] The workflow template was untargeted metabolomics with statistics to detect unknowns with ID using online Databases and mzLogic.ons obtained from positive and negative ionization mode using MZmine (Version 2.39) were also analyzed. […] Chromatograms were detected using the ADAP chromatogram builder (MS level: 1, Minimum group size in number of scans: 5, Group intensity threshold: 5×10^2, minimum highest intensity: 10^5, m/z tolerance: 10 ppm). […]

cat = test: Safety study in cat and tolerance studies in male and female species; assay type: in vivo; details: safety study in cat, high dose
male cats [3] = test: Multi-site field, double-masked, placebo-controlled study of a single 4.7 mg deslorelin implant in male cats (Example 1); assay type: in vivo
Method: The aim of this multi-site field, double-masked, placebo-controlled, randomized study was to confirm that deslorelin implants can be used as a neutering option for male cats and can also reduce their associated tomcat sexual behaviours.
Privately owned indoor male cats [3 months-11 years of age] were allocated to two groups to be either implanted with one 4.7 mg deslorelin implant (Suprelorin® 4.7 mg, Virbac, France) or to receive sodium chloride. The implant and the saline solution were administered subcutaneously between the shoulder blades on day 0 (D0). Serum testosterone concentrations in ng/ml (T), sexual behaviors (presence of urine marking, frequency of vocalization, frequency of aggressiveness) and presence of intact male cat urine odour were assessed until month (M) 12 (D372). General safety assessments, bodyweight, appetite and adverse reactions were regularly followed.
The protocol received ethical approval. The Cochran-Mantel-Haenszel test stratified by center with the RIDIT transformation and the general association statistic were used for comparison between groups.
Among n=205 Male Cats, n=154 received Suprelorin® 4.7 mg (treated group) and n=51 received the saline solution as control group.

[4] = vs saline group, throughout the study

CCNC(=O)[C@@H]1CCCN1C(=O)[C@H](CCCN=C(N)N)NC(=O)[C@H](CC(C)C)NC(=O)[C@@H](Cc1c[nH]c2ccccc12)NC(=O)[C@H](Cc1ccc(O)cc1)NC(=O)[C@H](CO)NC(=O)[C@H](Cc1c[nH]c2ccccc12)NC(=O)[C@H](Cc1cnc[nH]1)NC(=O)[C@@H]1CCC(=O)N1 [deslorelin]
duration of effective chemical castration (male cats [1]): at least 12 months | reversibility of effect at the end of the treatment (male cats [1]): reversible | sexual behaviors (male cats [1]): reduced | onset of efficacy in behavioral reduction (male cats [1]; approx.): 7 to 31 days | safety concerns (male cats [1]; single or repeated administration, up to 24 months): no safety concern | presence of deslorelin (dogs; dog, in vivo): 2.5 months | duration of observed effect (dogs; dogs): at least 6 months | levels of cadaverine, indole, paracresol, isovalthine and isobuteine ([2]; individually or together at least by two, summary of Example 3 data): down regulate | p-coumaroylputrescine concentration in urine ([2]; male cat urine, as a function of time, chemically treated group vs control group): decrease | adverse events (cat): neither serious adverse events nor live threatening events | flare in sexual behavior (male cats [3]; one 4.7 mg implant): No flare in sexual behavior | safety concerns (male cats [3]; one 4.7 mg implant, up to M12): no safety concerns | Sexual behavior scores (male cats [3]; [4]): decreased significantly | testicular volumes (male cats [3]; [4]): decreased significantly | urine odour (male cats [3]; [4]): decreased significantly | visibility of penile spines (male cats [3]; [4]): decreased significantly
